For orientation: IC50 means the concentration that gives 50% inhibition.

Sequence of Muscarinic acetylcholine receptor M3 (P20309 whole entry): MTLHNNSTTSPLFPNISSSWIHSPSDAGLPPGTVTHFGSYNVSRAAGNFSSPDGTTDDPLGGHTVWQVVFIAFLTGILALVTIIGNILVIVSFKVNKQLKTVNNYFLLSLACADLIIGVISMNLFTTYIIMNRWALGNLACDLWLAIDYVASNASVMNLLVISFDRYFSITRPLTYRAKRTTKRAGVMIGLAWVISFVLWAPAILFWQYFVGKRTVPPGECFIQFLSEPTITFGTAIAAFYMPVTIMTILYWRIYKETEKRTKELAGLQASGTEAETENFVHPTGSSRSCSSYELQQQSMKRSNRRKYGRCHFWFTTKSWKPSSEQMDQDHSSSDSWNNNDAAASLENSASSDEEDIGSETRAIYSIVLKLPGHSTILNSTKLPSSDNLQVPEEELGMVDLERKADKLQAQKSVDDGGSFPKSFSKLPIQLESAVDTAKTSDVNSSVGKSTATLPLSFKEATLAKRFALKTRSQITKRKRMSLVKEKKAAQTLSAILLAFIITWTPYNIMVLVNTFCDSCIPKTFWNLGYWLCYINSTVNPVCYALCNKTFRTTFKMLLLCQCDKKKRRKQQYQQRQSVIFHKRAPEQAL

One assay has as its target T1, Muscarinic acetylcholine receptor M2 (Homo sapiens, UniProt P08172).
T1 sequence (P08172 whole entry): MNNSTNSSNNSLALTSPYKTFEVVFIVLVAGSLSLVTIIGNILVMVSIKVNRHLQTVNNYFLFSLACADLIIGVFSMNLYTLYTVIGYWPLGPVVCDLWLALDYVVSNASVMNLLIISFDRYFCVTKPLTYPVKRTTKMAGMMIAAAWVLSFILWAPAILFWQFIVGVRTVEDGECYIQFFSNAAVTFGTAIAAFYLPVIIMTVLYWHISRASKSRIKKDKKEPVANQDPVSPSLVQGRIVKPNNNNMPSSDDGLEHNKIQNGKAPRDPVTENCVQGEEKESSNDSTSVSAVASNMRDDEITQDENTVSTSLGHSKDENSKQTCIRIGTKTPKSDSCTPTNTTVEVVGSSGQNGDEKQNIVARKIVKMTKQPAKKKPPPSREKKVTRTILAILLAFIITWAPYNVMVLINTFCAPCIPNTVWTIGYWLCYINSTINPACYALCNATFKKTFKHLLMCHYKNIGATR
The assay is described as follows: Antagonist activity at human recombinant muscarinic M2 receptor expressed in CHO cells coexpressing chimeric G protein Gqi5 assessed as inhibition of acetylcholine-induced intracellular Ca2+ mobilization by FLIPR assay. It is filed as functional, cell-based.
Conditions: not given
For orientation: A change in cytosolic calcium serves as a functional read-out for many receptors and channels.
In the case of `CC(C)NC(=O)c1ccc(NC(=O)N[C@@H](Cc2ccc(O)cc2)C(=O)NC2CCN(Cc3ccc(C#N)cc3)C2)cc1` (stereo partly specified), the IC50 was 1.58 µM.
Same read-out and setting: then `CCN(CC)C(=O)c1ccc(NC(=O)N[C@@H](Cc2ccc(O)cc2)C(=O)NC2CCN(Cc3ccc(C#N)cc3)C2)cc1` (stereo partly specified), with greater than 3.16 µM; and `CCOC(=O)c1ccc(NC(=O)N[C@@H](Cc2ccc(Cl)c(Cl)c2)C(=O)N[C@H]2CC[N+](C)(Cc3ccc4c(c3)OCO4)C2)cc1` (stereo partly specified), with 0.0126 µM; and `CCOC(=O)c1ccc(NC(=O)N[C@@H](Cc2ccc(O)cc2)C(=O)N[C@H]2CC[N+](C)(Cc3ccc(F)cc3)C2)cc1` (stereo partly specified), with 0.0398 µM.
On the same count and under the same terms, the value for `CCOC(=O)c1ccc(NC(=O)N[C@@H](Cc2ccc(OC)c(OC)c2)C(=O)N[C@H]2CC[N+](C)(Cc3ccc4c(c3)OCO4)C2)cc1` (stereo partly specified) was 0.0501 µM; that for `CCOC(=O)c1ccc(NC(=O)N[C@@H](Cc2ccc(-c3ccccc3)cc2)C(=O)N[C@H]2CC[N+](C)(Cc3ccc4c(c3)OCO4)C2)cc1` (stereo partly specified) was 0.00501 µM.
Turning to `N#Cc1ccc(CN2CCC(NC(=O)[C@H](Cc3ccc(O)cc3)NC(=O)Nc3ccc(C(=O)Nc4ccccc4)cc3)C2)cc1` (stereo partly specified), the half-maximal inhibitory concentration (IC50) is greater than 3.16 µM.
The same measure, in the same setting: then `CCCOC(=O)c1ccc(NC(=O)N[C@@H](Cc2ccc(O)cc2)C(=O)NC2CCN(Cc3ccc(O)cc3)C2)cc1` (stereo partly specified), with 0.1 µM.
Still for that read-out and setting: the value for `CCOC(=O)c1ccc(NC(=O)N[C@@H](Cc2ccc(Br)cc2)C(=O)N[C@H]2CC[N+](C)(Cc3ccc4c(c3)OCO4)C2)cc1` (stereo partly specified) was 0.00398 µM; that for `CCOC(=O)c1ccc(NC(=O)N[C@@H](Cc2cccc(Cl)c2)C(=O)N[C@H]2CC[N+](C)(Cc3ccc4c(c3)OCO4)C2)cc1` (stereo partly specified) was 0.00398 µM.
On the same count and under the same terms, then `CCOC(=O)c1ccc(NC(=O)N[C@@H](Cc2ccc(C)cc2)C(=O)N[C@H]2CC[N+](C)(Cc3ccc4c(c3)OCO4)C2)cc1` (stereo partly specified), with 0.01 µM; and `CCCNC(=O)c1ccc(NC(=O)N[C@@H](Cc2ccc(O)cc2)C(=O)NC2CCN(Cc3ccc(C#N)cc3)C2)cc1` (stereo partly specified), with greater than 3.16 µM; and `COC(=O)c1ccc(NC(=O)N[C@@H](Cc2ccc(O)cc2)C(=O)NC2CCN(Cc3ccc(O)cc3)C2)cc1` (stereo partly specified), with 0.316 µM.

Still in this assay, the particulars now being: read-out: pA2 (converted).
As for `CC(C)OC(=O)c1ccc(NC(=O)N[C@@H](Cc2ccc(O)cc2)C(=O)N[C@H]2CCC[N+](CC3CC3)(CC3CC3)C2)cc1`, the Kb is 0.00501 µM.
For the molecule `Cc1noc(-c2ccc(NC(=O)N[C@@H](Cc3ccc(O)cc3)C(=O)N[C@H]3CCC[N+](C)(Cc4ccc(O)cc4)C3)cc2)n1` (stereo partly specified), the Kb was 0.00631 µM.
Still for that read-out and setting: the value for `CC(C)NC(=O)c1ccc(NC(=O)N[C@@H](Cc2ccc(O)cc2)C(=O)N[C@H]2CCC[N+](C)(Cc3ccc(O)cc3)C2)cc1` (stereo partly specified) was 0.00398 µM; that for `CC(C)OC(=O)c1ccc(NC(=O)N[C@@H](Cc2ccc(O)cc2)C(=O)N[C@H]2CCC[N+]3(CCCCCC3)C2)cc1` was 0.00501 µM.

A further assay concerns the target T2, Muscarinic acetylcholine receptor M1 (Homo sapiens, UniProt P11229).
T2 sequence (P11229 whole entry): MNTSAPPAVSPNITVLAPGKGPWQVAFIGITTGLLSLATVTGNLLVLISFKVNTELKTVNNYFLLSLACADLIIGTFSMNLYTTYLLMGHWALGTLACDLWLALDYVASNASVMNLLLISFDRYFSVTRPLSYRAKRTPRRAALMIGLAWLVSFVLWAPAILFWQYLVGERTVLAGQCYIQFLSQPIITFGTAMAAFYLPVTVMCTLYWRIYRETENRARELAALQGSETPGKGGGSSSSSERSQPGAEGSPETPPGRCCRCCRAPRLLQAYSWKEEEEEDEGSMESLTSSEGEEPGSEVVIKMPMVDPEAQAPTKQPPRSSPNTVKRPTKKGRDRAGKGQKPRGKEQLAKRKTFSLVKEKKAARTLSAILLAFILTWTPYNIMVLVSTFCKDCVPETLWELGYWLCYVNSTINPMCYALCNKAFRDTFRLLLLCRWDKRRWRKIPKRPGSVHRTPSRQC
The assay is described as follows: Antagonist activity at human recombinant muscarinic M1 receptor expressed in CHO cells assessed as inhibition of acetylcholine-induced intracellular Ca2+ mobilization by FLIPR assay.
Conditions: not given
It is filed as functional, cell-based.
In the case of `CC(C)NC(=O)c1ccc(NC(=O)N[C@@H](Cc2ccc(O)cc2)C(=O)NC2CCN(Cc3ccc(C#N)cc3)C2)cc1` (stereo partly specified), the IC50 was greater than 3.16 µM.
For the molecule `CCN(CC)C(=O)c1ccc(NC(=O)N[C@@H](Cc2ccc(O)cc2)C(=O)NC2CCN(Cc3ccc(C#N)cc3)C2)cc1` (stereo partly specified), the IC50 is greater than 3.16 µM.
Same read-out and setting: the value for `CCOC(=O)c1ccc(NC(=O)N[C@@H](Cc2ccc(Cl)c(Cl)c2)C(=O)N[C@H]2CC[N+](C)(Cc3ccc4c(c3)OCO4)C2)cc1` (stereo partly specified) was 0.0398 µM; that for `CCOC(=O)c1ccc(NC(=O)N[C@@H](Cc2ccc(O)cc2)C(=O)N[C@H]2CC[N+](C)(Cc3ccc(F)cc3)C2)cc1` (stereo partly specified) was 0.2 µM; that for `CCOC(=O)c1ccc(NC(=O)N[C@@H](Cc2ccc(OC)c(OC)c2)C(=O)N[C@H]2CC[N+](C)(Cc3ccc4c(c3)OCO4)C2)cc1` (stereo partly specified) was 0.631 µM.
For the molecule `CCOC(=O)c1ccc(NC(=O)N[C@@H](Cc2ccc(-c3ccccc3)cc2)C(=O)N[C@H]2CC[N+](C)(Cc3ccc4c(c3)OCO4)C2)cc1` (stereo partly specified), the IC50 is 0.0126 µM.
On the same count and under the same terms, the value for `N#Cc1ccc(CN2CCC(NC(=O)[C@H](Cc3ccc(O)cc3)NC(=O)Nc3ccc(C(=O)Nc4ccccc4)cc3)C2)cc1` (stereo partly specified) was greater than 3.16 µM.
Same read-out and setting: then `CCCOC(=O)c1ccc(NC(=O)N[C@@H](Cc2ccc(O)cc2)C(=O)NC2CCN(Cc3ccc(O)cc3)C2)cc1` (stereo partly specified), with 1 µM.
Same read-out and setting: then `CCOC(=O)c1ccc(NC(=O)N[C@@H](Cc2ccc(Br)cc2)C(=O)N[C@H]2CC[N+](C)(Cc3ccc4c(c3)OCO4)C2)cc1` (stereo partly specified), with 0.0316 µM; and `CCOC(=O)c1ccc(NC(=O)N[C@@H](Cc2cccc(Cl)c2)C(=O)N[C@H]2CC[N+](C)(Cc3ccc4c(c3)OCO4)C2)cc1` (stereo partly specified), with 0.0251 µM.
In the case of `CCOC(=O)c1ccc(NC(=O)N[C@@H](Cc2ccc(C)cc2)C(=O)N[C@H]2CC[N+](C)(Cc3ccc4c(c3)OCO4)C2)cc1` (stereo partly specified), the IC50 was 0.1 µM.
Same read-out and setting: then `CCCNC(=O)c1ccc(NC(=O)N[C@@H](Cc2ccc(O)cc2)C(=O)NC2CCN(Cc3ccc(C#N)cc3)C2)cc1` (stereo partly specified), with greater than 3.16 µM; and `COC(=O)c1ccc(NC(=O)N[C@@H](Cc2ccc(O)cc2)C(=O)NC2CCN(Cc3ccc(O)cc3)C2)cc1` (stereo partly specified), with 1 µM.

Staying with this assay, now noted: read-out: pA2 (converted).
On to `CC(C)OC(=O)c1ccc(NC(=O)N[C@@H](Cc2ccc(O)cc2)C(=O)N[C@H]2CCC[N+](CC3CC3)(CC3CC3)C2)cc1`, for which the Kb is 0.0398 µM.
The same measure, in the same setting: the value for `Cc1noc(-c2ccc(NC(=O)N[C@@H](Cc3ccc(O)cc3)C(=O)N[C@H]3CCC[N+](C)(Cc4ccc(O)cc4)C3)cc2)n1` (stereo partly specified) was 0.158 µM.
The same measure, in the same setting: then `CC(C)NC(=O)c1ccc(NC(=O)N[C@@H](Cc2ccc(O)cc2)C(=O)N[C@H]2CCC[N+](C)(Cc3ccc(O)cc3)C2)cc1` (stereo partly specified), with 0.0794 µM; and `CC(C)OC(=O)c1ccc(NC(=O)N[C@@H](Cc2ccc(O)cc2)C(=O)N[C@H]2CCC[N+]3(CCCCCC3)C2)cc1`, with 0.0794 µM.

A further assay has as its target Muscarinic acetylcholine receptor M3 (Homo sapiens, UniProt P20309). The assay is described as follows: Antagonist activity at human recombinant muscarinic M3 receptor expressed in CHO cells assessed as inhibition of acetylcholine-induced intracellular Ca2+ mobilization by FLIPR assay. It counts as functional, cell-based.
Conditions: not given
As to `CC(C)NC(=O)c1ccc(NC(=O)N[C@@H](Cc2ccc(O)cc2)C(=O)NC2CCN(Cc3ccc(C#N)cc3)C2)cc1` (stereo partly specified), the IC50 was 0.1 µM.
In the case of `CCN(CC)C(=O)c1ccc(NC(=O)N[C@@H](Cc2ccc(O)cc2)C(=O)NC2CCN(Cc3ccc(C#N)cc3)C2)cc1` (stereo partly specified), the IC50 is 0.398 µM.
The same measure, in the same setting: the value for `CCOC(=O)c1ccc(NC(=O)N[C@@H](Cc2ccc(Cl)c(Cl)c2)C(=O)N[C@H]2CC[N+](C)(Cc3ccc4c(c3)OCO4)C2)cc1` (stereo partly specified) was 0.0251 µM; that for `CCOC(=O)c1ccc(NC(=O)N[C@@H](Cc2ccc(O)cc2)C(=O)N[C@H]2CC[N+](C)(Cc3ccc(F)cc3)C2)cc1` (stereo partly specified) was 0.00631 µM.
As to `CCOC(=O)c1ccc(NC(=O)N[C@@H](Cc2ccc(OC)c(OC)c2)C(=O)N[C@H]2CC[N+](C)(Cc3ccc4c(c3)OCO4)C2)cc1` (stereo partly specified), the IC50 is 1.26 µM.
The same measure, in the same setting: then `CCOC(=O)c1ccc(NC(=O)N[C@@H](Cc2ccc(-c3ccccc3)cc2)C(=O)N[C@H]2CC[N+](C)(Cc3ccc4c(c3)OCO4)C2)cc1` (stereo partly specified), with 0.0158 µM; and `N#Cc1ccc(CN2CCC(NC(=O)[C@H](Cc3ccc(O)cc3)NC(=O)Nc3ccc(C(=O)Nc4ccccc4)cc3)C2)cc1` (stereo partly specified), with 0.501 µM.
Regarding `CCCOC(=O)c1ccc(NC(=O)N[C@@H](Cc2ccc(O)cc2)C(=O)NC2CCN(Cc3ccc(O)cc3)C2)cc1` (stereo partly specified), the IC50 was 0.01 µM.
On the same count and under the same terms, the value for `CCOC(=O)c1ccc(NC(=O)N[C@@H](Cc2ccc(Br)cc2)C(=O)N[C@H]2CC[N+](C)(Cc3ccc4c(c3)OCO4)C2)cc1` (stereo partly specified) was 0.0126 µM.
Still for that read-out and setting: the value for `CCOC(=O)c1ccc(NC(=O)N[C@@H](Cc2cccc(Cl)c2)C(=O)N[C@H]2CC[N+](C)(Cc3ccc4c(c3)OCO4)C2)cc1` (stereo partly specified) was 0.00794 µM; that for `CCOC(=O)c1ccc(NC(=O)N[C@@H](Cc2ccc(C)cc2)C(=O)N[C@H]2CC[N+](C)(Cc3ccc4c(c3)OCO4)C2)cc1` (stereo partly specified) was 0.0158 µM; that for `CCCNC(=O)c1ccc(NC(=O)N[C@@H](Cc2ccc(O)cc2)C(=O)NC2CCN(Cc3ccc(C#N)cc3)C2)cc1` (stereo partly specified) was 0.501 µM.
Same read-out and setting: then `COC(=O)c1ccc(NC(=O)N[C@@H](Cc2ccc(O)cc2)C(=O)NC2CCN(Cc3ccc(O)cc3)C2)cc1` (stereo partly specified), with 0.0251 µM.

The same assay, now with this note: read-out: pA2 (converted).
In the case of `CC(C)OC(=O)c1ccc(NC(=O)N[C@@H](Cc2ccc(O)cc2)C(=O)N[C@H]2CCC[N+](CC3CC3)(CC3CC3)C2)cc1`, the Kb is 0.000631 µM.
Consider `Cc1noc(-c2ccc(NC(=O)N[C@@H](Cc3ccc(O)cc3)C(=O)N[C@H]3CCC[N+](C)(Cc4ccc(O)cc4)C3)cc2)n1` (stereo partly specified), for which the Kb is 0.002 µM.
Still for that read-out and setting: the value for `CC(C)NC(=O)c1ccc(NC(=O)N[C@@H](Cc2ccc(O)cc2)C(=O)N[C@H]2CCC[N+](C)(Cc3ccc(O)cc3)C2)cc1` (stereo partly specified) was 0.000631 µM; that for `CC(C)OC(=O)c1ccc(NC(=O)N[C@@H](Cc2ccc(O)cc2)C(=O)N[C@H]2CCC[N+]3(CCCCCC3)C2)cc1` was 0.00316 µM.

For the origin of these results see ChEMBL document CHEMBL1152232, “Muscarinic acetylcholine receptor antagonists: SAR and optimization of tyrosine ureas” (Bioorg Med Chem Lett, 2008).
